Source: patent US7053107B2, “Indazole compounds and pharmaceutical compositions for inhibiting protein kinases, and methods for their use” (Agouron Pharmaceuticals, Inc., priority 2002, dated 2006)

Tests used:
[1] = system: human umbilical vein endothelial cells (HUVEC); assay: HUVEC Proliferation Assay (VEGF-stimulated); assay type: cell-based
Procedure, shortened: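 Serum-starved HUVEC (passage 3–4, F12K + 1% FBS, 24 h) pretreated 1 h with compound (final DMSO 0.1%), then stimulated with 6 ng/mL VEGF for 72 h. Proliferation read by 4 h MTT reduction, absorbance 595. IC50 from seven-point 0.5-log curves in triplicate; screening % inhibition normalised to VEGF-only and starvation controls.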

[2] = target: T1, FGF-R1 (Homo sapiens, UniProt P11362, C488A/C584S/L457V); assay: Fibroblast Growth Factor (FGF-R) spectrophotometric assay; assay type: biochemical; details: for inhibition at 1 µM: 1 μM compound, read-out: FGF-P % inhibit @1 μM
T1 construct: starting from the endogenous methionine residue 456 to glutamate 766; made in house; host or cells: baculovirus vector expression system
Procedure, shortened: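 Baculovirus-expressed human FGF-R1 kinase domain (Met456–Glu766; L457V/C488A/C584S), 50 nM, with 2 mM ATP and 15 mM poly(E4Y1) in HEPES pH 7.5. ADP formation coupled via PK/LDH to NADH oxidation, read as A340 decrease. Ki from activity across varying compound concentrations.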

[3] = Human Liver Microsome (HLM) Assay; assay type: in vitro ADME
Description: Compound metabolism in human liver microsomes was measured by LC-MS analytical assay procedures as follows. First, human liver microsomes (HLM) were thawed and diluted to 5 mg/mL with cold 100 mM potassium phosphate (KPO4) buffer. Appropriate amounts of KPO4 buffer, NADPH-regenerating solution (containing B-NADP, glucose-6-phosphate, glucose-6-phosphate dehydrogenase, and MgCl2), and HLM were preincubated in 13×100 mm glass tubes at 37 C. for 10 min. (3 tubes per test compound—triplicate). Test compound (5 µM final) was added to each tube to initiate reaction and was mixed by gentle vortexing, followed by incubation at 37° C. […] Samples were centrifuged at 4000 rpm for 20 min. to precipitate proteins and salt (Beckman Allegra 6KR, S/N ALK98DO6, #634). Supernatant was transferred to new 12×75 mm glass tubes and evaporated by Speed-Vac centrifugal vacuum evaporator. Samples were reconstituted in 200 μL 0.1% formic acid/acetonitrile (90/10) and vortexed vigorously to dissolve. The samples were then transferred to separate polypropylene microcentrifuge tubes and centrifuged at 14000×g for 10 min. (Fisher Micro 14, S/N M0017580). […]
The combined compound samples were injected into the LC-MS system, composed of a Hewlett-Packard HP 1100 diode array HPLC and a Micromass Quattro II triple quadruple mass spectrometer operating in positive electrospray SIR mode (programmed to scan specifically for the molecular ion of each test compound. Each test compound peak was integrated at each timepoint. […]

T1 sequence (P11362 456-766 L457V/C488A/C584S): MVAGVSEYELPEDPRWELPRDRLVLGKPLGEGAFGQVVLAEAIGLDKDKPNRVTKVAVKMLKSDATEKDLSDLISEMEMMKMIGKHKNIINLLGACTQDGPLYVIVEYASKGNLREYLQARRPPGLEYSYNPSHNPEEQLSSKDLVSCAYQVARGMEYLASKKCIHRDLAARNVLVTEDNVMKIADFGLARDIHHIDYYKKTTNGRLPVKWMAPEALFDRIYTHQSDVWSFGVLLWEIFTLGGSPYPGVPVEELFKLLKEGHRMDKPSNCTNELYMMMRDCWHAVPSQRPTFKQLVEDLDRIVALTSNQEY

inhibition at 1 µM [2] [%]	% remaining (HLM) ([3]; @0.5 h)	Ki ([2]; second value in the FGF-P cell, Ki) [nM]	% remaining (HLM) ([3]; @2 h)	Structure (SMILES)	IC50 [1] [pM]
36	75@0.5 h %	–	–	C=C(C)CNC(=O)c1ccccc1Nc1ccc2c(/C=C/c3ccccn3)n[nH]c2c1 [Example 3(k), N-(2-Methyl-allyl)-2-[3-((E)-2-pyridin-2-yl-vinyl)-1H-indazol-6-ylamino]-benzamide]	800
38	80@0.5 h %	197	–	Cc1cc(C)nc(/C=C/c2n[nH]c3cc(Nc4ccccc4C(=O)NCC#CCO)ccc23)c1 [Example 10, 2-{3-[(E)-2-(4,6-Dimethyl-pyridin-2-yl)-vinyl]-1H-indazol-6-ylamino}-N-(4-hydroxy-but-2-ynyl)-benzamide]	670
80	–	–	68@2 h %	O=C(NC1CC1)c1ccccc1Nc1ccc2c(/C=C/c3ccccn3)n[nH]c2c1 [Example 3(d), N-Cyclopropyl-2-[3-((E)-2-pyridin-2-yl-vinyl)-1H-indazol-6-ylamino]-benzamide]	400
43	65@0.5 h %	–	–	O=C(NC1CCC1)c1ccccc1Nc1ccc2c(/C=C/c3ccccn3)n[nH]c2c1 [Example 3(j), N-Cyclobutyl-2-[3-((E)-2-pyridin-2-yl-vinyl)-1H-indazol-6-ylamino]-benzamide]	1700
70	97@0.5 h %	–	–	C#CCNC(=O)c1ccccc1Nc1ccc2c(/C=C/c3cc(C)ccn3)n[nH]c2c1 [Example 32, 2-{3-[(E)-2-(4-Methyl-pyridin-2-yl)-vinyl]-1H-indazol-6-ylamino}-N-prop-2-ynyl-benzamide]	610
85	75@0.5 h %	–	–	COc1ccccc1CNC(=O)c1ccccc1Nc1ccc2c(/C=C/c3ccccn3)n[nH]c2c1 [Example 3(h), N-(2-Methoxy-benzyl)-2-[3-((E)-2-pyridin-2-yl-vinyl)-1H-indazol-6-ylamino]-benzamide]	1600
75	74@0.5 h %	–	–	Cc1ccnc(/C=C/c2n[nH]c3cc(Nc4ccccc4C(=O)NC4CC4)ccc23)c1 [Example 2(h), N-Cyclopropyl-2-{3-[(E)-2-(4-methyl-pyridin-2-yl)-vinyl]-1H-indazol-6-ylamino}-benzamide]	1600
39	66@0.5 h %	–	–	O=C(NCC#CCO)c1ccccc1Nc1ccc2c(/C=C/c3ccccn3)n[nH]c2c1 [Example 64, N-(4-Hydroxy-but-2-ynyl)-2-[3-(2-pyridin-2-yl-vinyl)-1H-indazol-6-ylamino]-benzamide]	150
